This note sets out measurements from ChEMBL document CHEMBL3301458, “MMV Malaria Box hERG screening”.

Calls of active or inactive are those of the source. How the calls were made is not given here.

For series [1], the target named is T1, hERG (Kv11.1, KCNH2) (Homo sapiens, UniProt Q12809). Briefly: in vitro.
Description: MMV: Malaria Box compounds were tested for inhibition of the human ether a go-go related gene (hERG), Kv11.1 channel, using IonWorks 384-well patch clamp electrophysiology at 1.1uM (3 independent assay plates up to 12 cells per concentration).
Series [2] has as its target T1, hERG (Kv11.1, KCNH2). In words: in vitro. The source holds these as a separate data set.
Description: MMV: Malaria Box compounds were tested for inhibition of the human ether a go-go related gene (hERG), Kv11.1 channel, using IonWorks 384-well patch clamp electrophysiology at 11.1uM (3 independent assay plates up to 12 cells per concentration).

T1 sequence (Q12809 whole entry): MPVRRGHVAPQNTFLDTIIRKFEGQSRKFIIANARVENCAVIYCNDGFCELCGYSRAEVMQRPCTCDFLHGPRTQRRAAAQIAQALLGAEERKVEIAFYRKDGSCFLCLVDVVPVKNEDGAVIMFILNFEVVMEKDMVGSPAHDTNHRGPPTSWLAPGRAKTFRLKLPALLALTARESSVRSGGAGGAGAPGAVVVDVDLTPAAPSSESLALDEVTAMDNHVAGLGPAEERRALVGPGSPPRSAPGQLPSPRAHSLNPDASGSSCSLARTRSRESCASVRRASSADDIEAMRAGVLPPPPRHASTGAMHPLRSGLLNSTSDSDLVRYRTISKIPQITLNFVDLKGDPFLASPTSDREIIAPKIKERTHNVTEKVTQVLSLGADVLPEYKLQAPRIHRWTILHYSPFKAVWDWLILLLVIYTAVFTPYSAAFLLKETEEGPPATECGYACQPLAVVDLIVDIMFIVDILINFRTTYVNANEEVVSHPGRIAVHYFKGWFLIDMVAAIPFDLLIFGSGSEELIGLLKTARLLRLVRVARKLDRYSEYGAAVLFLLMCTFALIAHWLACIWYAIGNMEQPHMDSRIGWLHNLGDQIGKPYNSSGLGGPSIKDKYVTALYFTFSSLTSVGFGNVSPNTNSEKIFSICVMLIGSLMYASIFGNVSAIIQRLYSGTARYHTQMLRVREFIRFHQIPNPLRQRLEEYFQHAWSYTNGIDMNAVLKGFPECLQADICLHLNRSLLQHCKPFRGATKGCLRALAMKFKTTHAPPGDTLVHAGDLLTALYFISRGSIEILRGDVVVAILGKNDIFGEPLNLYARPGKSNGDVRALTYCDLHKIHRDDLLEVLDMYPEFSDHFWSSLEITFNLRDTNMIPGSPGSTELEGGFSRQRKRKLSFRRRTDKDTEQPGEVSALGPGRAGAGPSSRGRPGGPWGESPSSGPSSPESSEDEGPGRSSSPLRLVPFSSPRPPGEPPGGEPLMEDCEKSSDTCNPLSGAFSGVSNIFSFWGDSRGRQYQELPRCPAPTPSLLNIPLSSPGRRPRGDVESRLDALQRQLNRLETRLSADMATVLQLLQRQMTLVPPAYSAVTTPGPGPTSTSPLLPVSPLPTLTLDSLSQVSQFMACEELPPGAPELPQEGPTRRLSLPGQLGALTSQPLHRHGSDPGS

Usually inhibition stands for the change of the read-out against control, counted positive when it falls. `O=C(Nc1ccc(Cl)c(Cl)c1)Nc1ccc(Cl)c(Cl)c1`: the inhibition at 1.1 µM in series [1] came out at 15%. The inhibition at 11.1 µM in series [2] is 103% (active).
As for `CCN1CCCC1CNc1[nH]cnc2c3cc(Cl)ccc3nc1-2` (stereo unspecified), in series [1], the inhibition at 1.1 µM worked out at 6%. In addition, the inhibition at 11.1 µM in series [2] amounted to 29%.
On the same counts, the results for `COc1ccc(-c2c(C)nn3c(N)c(C#N)cnc23)cc1OC` are 11% and 11% (inactive).
For `COc1ccc2c(c1)C1(Nc3ccccc3-c3nc4ccccc4n31)C(=O)N2` (stereo unspecified) the same measures were 4% and 20% (inactive).
For `COc1cccc(Cn2c(Oc3ccccc3)nc3c2c(=O)n(C)c(=O)n3C)c1` the same measures were -4% and 26%.
For `N=c1n(CCN2CCCCC2)c2ccccc2n1CC(=O)c1ccc(Cl)c(Cl)c1`, the inhibition at 1.1 µM in series [1] is -13%. In addition, the inhibition at 11.1 µM in series [2] was -1% (inactive).
On the same counts, the results for `CCOc1cc(CNC(C)C(O)c2ccccc2)cc(Cl)c1OCC` (stereo unspecified) are 2% and 48%.
On the same counts, the results for `C[n+]1c2ccccc2nc2ccc(NCCO)cc21` are 8% and 11% (inactive).
For `CCOc1c(Cl)cc(CNCC(O)c2ccccc2)cc1OC` (stereo unspecified) the same measures were 16% and 66% (active).
Take `OC(CNCC1CCCO1)Cn1c2ccc(Cl)cc2c2cc(Cl)ccc21` (stereo unspecified): in series [1], the inhibition at 1.1 µM amounted to 12%. The inhibition at 11.1 µM in series [2] was 16% (inactive).
Regarding `COc1ccc(/C=C2/SC(=Nc3ccccc3)NC2=O)cc1`, the inhibition at 1.1 µM in series [1] came out at 12%. In addition, the inhibition at 11.1 µM in series [2] was 27%.
On the same counts, the results for `COc1ccc(-c2nc(N3CCN(C(=O)C4CCCCC4)CC3)c3c4c(sc3n2)CCCC4)cc1` are 7% and 17% (inactive).
On the same counts, the results for `CCOc1ccccc1CN1CCc2nc3cc(C(C)(C)C)nn3c(O)c2C1` are -1% and 58% (active).
For `O=C(NC1CCN(Cc2ccccc2)CC1)c1cc2nc(-c3ccc(Cl)s3)cc(C(F)(F)F)n2n1` the same measures were 21% and 60% (active).
As to `Cc1sc(NC(=O)c2ccccc2)c(C(c2cccs2)N2CCN(c3ccccc3)CC2)c1C` (stereo unspecified), the inhibition at 1.1 µM in series [1] came to 9%. Moreover, the inhibition at 11.1 µM in series [2] is 9% (inactive).
On the same counts, the results for `Cc1sc(NC(=O)c2ccco2)c(C(c2cccnc2)N2CCC(Cc3ccccc3)CC2)c1C` (stereo unspecified) are -12% and 9% (inactive).
For `CCOC(=O)c1c(C)n(-c2ccccc2)c2ccc(OC(=O)c3cc(OC)c(OC)c(OC)c3)cc12` the same measures were -6% and 11% (inactive).
For `COc1cc(C(=O)Nc2nc3c(cc4c5c(cccc53)CC4)s2)cc(OC)c1OC` the same measures were 10% and 23% (inactive).
As to `Cc1cc(N2CCCC2)nc(Nc2ccc(NC(=O)CCc3ccccc3)cc2)n1`, in series [1], the inhibition at 1.1 µM was 9%. The inhibition at 11.1 µM in series [2] was 116% (active).
With `O=C(NCC(c1ccsc1)N1CCCCCC1)c1ccc(C(F)(F)F)cc1` (stereo unspecified), in series [1], the inhibition at 1.1 µM was 50%. In addition, the inhibition at 11.1 µM in series [2] worked out at 94%.
In the case of `COc1ccc(-c2cc3c(SCC(=O)Nc4cc(C(F)(F)F)ccc4Cl)nccn3n2)cc1`, in series [1], the inhibition at 1.1 µM is 6%. For the same molecule, the inhibition at 11.1 µM in series [2] is 17% (inactive).
On the same counts, the results for `Cc1ccc(-c2cc3c(SCC(=O)Nc4cc(C(F)(F)F)ccc4Cl)nccn3n2)cc1` are 2% and 29%.
Regarding `Cc1cc(NC(=O)c2cccc(C(F)(F)F)c2)n(-c2nc(-c3ccc4c(c3)OCO4)cs2)n1`, in series [1], the inhibition at 1.1 µM is 12%. For the same molecule, the inhibition at 11.1 µM in series [2] was 6% (inactive).
On the same counts, the results for `CCN(CC)CCNc1ncnc2c1[nH]c1ccc(Cl)cc12` are 99% and 97%.
For `CN1CCN(c2ncnc3c2[nH]c2ccc(Cl)cc23)CC1` the same measures were 15% and 92% (active).
On the same counts, the results for `CC1(c2ccccc2)Nc2ccccc2-c2nc3ccccc3n21` (stereo unspecified) are -10% and 29%.
On to `COc1ccc(CCN2C(=O)c3[nH]nc(-c4cc(Cl)c(C)cc4O)c3C2c2ccccc2F)cc1` (stereo unspecified), for which the inhibition at 1.1 µM in series [1] came out at 51%. Further, in series [2], the inhibition at 11.1 µM was determined as 5%.
As to `COc1cccc(C2(C)Nc3ccccc3-c3nc4ccccc4n32)c1` (stereo unspecified), the inhibition at 1.1 µM in series [1] worked out at 10%. Further, in series [2], the inhibition at 11.1 µM is 18% (inactive).
For `N#Cc1nc(Cc2cccc3ccccc23)oc1N1CCN(C(c2ccccc2)c2ccccc2)CC1` the same measures were 15% and 13% (inactive).
On the same counts, the results for `CC(C)CNC(=O)c1c(N)n(CCc2ccccc2F)c2nc3ccccc3nc12` are 17% and -11% (inactive).
For `O=C(NNc1cc(N2CCCC2)nc(N2CCCC2)n1)c1ccccc1` the same measures were 4% and 35%.
Turning to `CC(C)(C)CC(C)(C)NCC(O)COc1ccc(Cl)cc1Cl` (stereo unspecified), the inhibition at 1.1 µM in series [1] turned out to be 8%. For the same molecule, the inhibition at 11.1 µM in series [2] was 81% (active).
For `Cc1cccc(-n2ncc3c(O)nc(-n4nc(C)cc4NC(=O)c4cc5ccccc5o4)nc32)c1` the same measures were -3% and -8% (inactive).
On the same counts, the results for `OC1=C2C(=Nc3ccccc3SC2c2ccccc2)c2ccccc21` (stereo unspecified) are 15% and 16% (inactive).
For `FC(F)(F)c1cccc(Nc2nc3ccccc3nc2Nc2cccc(C(F)(F)F)c2)c1` the same measures were -4% and 8% (inactive).
For the molecule `COc1cccc(NC(=O)Cn2c(C)c(C#N)c3ccccc32)c1`, in series [1], the inhibition at 1.1 µM came out at 2%. Moreover, the inhibition at 11.1 µM in series [2] was -4% (inactive).
For `CC(C)(C)c1ccc(O)c(CNC2CCCCC2)c1` the same measures were 10% and 35%.
On the same counts, the results for `CCOC(=O)c1c(NC(=O)c2ccccc2)sc2c(O)c(CN(CC)CC)ccc12` are 4% and 23% (inactive).
Turning to `CCOc1cc(Br)c(C(C)NC(=O)c2cccc(OC)c2)cc1OCC` (stereo unspecified), the inhibition at 1.1 µM in series [1] is -12%. In series [2], the inhibition at 11.1 µM is 2% (inactive).
For `CCOc1cc(Cl)c(C(C)NC(=O)c2cccc(OC)c2)cc1OCC` (stereo unspecified) the same measures were -3% and 9% (inactive).
For `FC(F)(F)c1cccc(Nc2nc(-c3ccccc3)nc3ncccc23)c1` the same measures were -8% and 0% (inactive).
`CCCCOC(=O)c1ccc(Nc2cc(C)nc3ccc(OC)cc23)cc1`: the inhibition at 1.1 µM in series [1] turned out to be 65%. Besides, in series [2], the inhibition at 11.1 µM stood at 91%.
In the case of `CC(NCc1ccccc1)c1cc(Cl)ccc1O` (stereo unspecified), in series [1], the inhibition at 1.1 µM is -4%. In addition, the inhibition at 11.1 µM in series [2] was found to be 35%.
On the same counts, the results for `Cn1c(C(=O)c2cccc3ccccc23)nc2ccccc21` are -4% and 1% (inactive).
For `O=c1cc(NC2CCN(CCCc3ccccc3)CC2)c2cc(Cl)ccc2o1` the same measures were 89% and 101%.
For `Oc1ccc(Cl)cc1CNc1nc2ccccc2[nH]1` the same measures were 14% and 52% (active).
Consider `O=C(Nc1ccc(-c2nc3ccccc3[nH]2)cc1)c1ccc(Cl)c(Cl)c1`, for which, in series [1], the inhibition at 1.1 µM worked out at 2%. In addition, the inhibition at 11.1 µM in series [2] was determined as 45%.
On the same counts, the results for `CCOc1cc(Cl)c(C(C)NC(=O)c2ccccc2)cc1OCC` (stereo unspecified) are -6% and 7% (inactive).
Regarding `COc1ccc(C(=O)Nc2ccc(Cl)cc2C(=O)Nc2ccncc2)cc1`, in series [1], the inhibition at 1.1 µM was -6%. Besides, the inhibition at 11.1 µM in series [2] is -3% (inactive).
For the molecule `CCN(CC)CCCNc1ccnc2cc3ccccc3cc12`, the inhibition at 1.1 µM in series [1] was -2%. Also, the inhibition at 11.1 µM in series [2] was 23% (inactive).
On the same counts, the results for `Oc1c(C(Nc2ccccn2)c2cccc(Oc3ccccc3)c2)ccc2cccnc12` (stereo unspecified) are 20% and 97% (active).
On the same counts, the results for `CCOC(=O)c1cn(CC)c2cc(N3CCCCC3)c(F)cc2c1=O` are -4% and 25%.
For `CCCc1cc(O)c2c3c(c(=O)oc2c1)CN(C)CC3` the same measures were 46% and 94% (active).
On to `CCc1ccc(CNCC(O)c2ccccc2)cc1` (stereo unspecified), for which the inhibition at 1.1 µM in series [1] is 32%. Moreover, the inhibition at 11.1 µM in series [2] was 67% (active).
Take `CCOc1ccc(-c2nonc2NC(=O)c2cccc(C)c2)cc1OCC`: the inhibition at 1.1 µM in series [1] is -1%. Besides, the inhibition at 11.1 µM in series [2] was 0% (inactive).
Take `COc1ccc2c(=O)cc(C(Cl)(Cl)Cl)oc2c1`: the inhibition at 1.1 µM in series [1] was determined as 6%. Also, the inhibition at 11.1 µM in series [2] was 9% (inactive).
For `CC(C)(C)CC(C)(C)NCC(O)COc1ccc2c(c1)CCC2` (stereo unspecified) the same measures were 8% and 62% (active).
On the same counts, the results for `Oc1ccc(Br)cc1CN1CCN(Cc2ccc(Cl)cc2)CC1` are 2% and 10% (inactive).
As to `O=c1c2c([nH]c3ccccc13)CCCC2`, the inhibition at 1.1 µM in series [1] worked out at 4%. Further, the inhibition at 11.1 µM in series [2] is 6% (inactive).
On the same counts, the results for `CC1CC2=C(CC1CNCCCN(C)C)C(C)(C)CCC2` (stereo unspecified) are -3% and 77% (active).
For `CCOC(=O)c1cnc2ccc(OC)cc2c1NCc1ccccc1` the same measures were -2% and 4% (inactive).
On the same counts, the results for `Cc1c(C)n(CC(O)CNC2CCCCC2C)c2ccccc12` (stereo unspecified) are -10% and 20% (inactive).
In the case of `CCOC(=O)c1c[nH]c2c(CC)cccc2c1=O`, in series [1], the inhibition at 1.1 µM amounted to 10%. Further, in series [2], the inhibition at 11.1 µM was 5% (inactive).
